Tests used:
[1] = test system: acetic acid-induced colitis; assay type: in vivo
Description: (§1) Method for FIG. 14. […] Balb/c mice were fasted for 24 hours. Colitis was induced by injecting 200 μL of 4% acetic acid into the rectum. […] Another group of animals were treated with 5-ASA (5-aminosalicylic acid or mesalamine), and another received no treatment. Seven days after the first dose, five cm of intestine were cleaned in cold saline then weighed.
as §1, with “15.” for “14.”, “dose the colon was examined visually for mucosal injury and scored according to the Table below.” for “dose, five cm of intestine were cleaned in cold saline then weighed.”
Briefly, colitis was induced by injecting 4% acetic acid into the rectum.

DSS-induced colitis = assay: Dextran sulfate sodium (DSS)-induced acute colitis model; assay type: in vivo, male C57BL/6 mice; conditions: end of study; brilacidin 400 mg/kg or 5-ASA 50 mg/kg per rectum Days 7-11
Description: The efficacy of brilacidin administered was investigated in a murine model of chemically-induced acute colitis using dextran sulfate sodium (DSS). This was a different in vivo model of IBD to the testing performed in Examples 16 and 17 (where mucosal injury was induced by using acetic acid). DSS-induced colitis in mice is characterized by weight loss, bloody diarrhea, intestinal ulcerations and infiltrations with granulocytes. In mice, DSS was administered from Day 0 to Day 11, as a 5% (w/v) DSS solution in the drinking water of male C57BL/6 mice (Kim J J, et al., J. Vis. Exp., 2012, 60, 3678), to induce severe murine colitis. On Days 7-11, test compound brilacidin (400 mg/kg) or positive control 5-ASA (50 mg/kg) or water (negative control) were administered as a solution, per rectum. On Days 6, 10 and 11, rectal bleeding was assessed using a Hemoccult® kit and stool consistency was visually assessed; severity of symptoms were scored on a scale of 0 (normal) to 4 (severe). Level of pro-inflammatory cytokines interleukin (IL)-6 and IL-1β in distal colon tissue were determined from excised colons using conventional ELISA methods.

human PDE4B2 = human PDE4B2 (Homo sapiens, UniProt Q07343); assay: PDE-Glo phosphodiesterase assay, PDE4; assay type: biochemical; conditions: 8 ng PDE4B, 1 μM cAMP substrate, 15 min pre-incubation; read-out: IC50, inhibition of PDE4
Description: Method for FIG. 1. […] The compounds and PDE4B (BPS Biosciences, San Diego, CA) were mixed and pre-incubated at room temperature for 15 minutes. Substrate was added and the reaction was incubated for 7 minutes at room temperature. Data are presented as luminescence units (RLU).
Method for FIG. 2. Phosphodiesterase inhibition assays of PDE4 were performed, using PMX-60056. The PDE-Glo phosphodiesterase assay (Promega, Madison, WI, USA Catalog No. V1361) was performed using 8 ng of PDE4B (BPS Biosciences, San Diego, CA). […] The compounds and PDE4B were mixed and pre-incubated at room temperature for 15 minutes. Substrate was added and the reaction was incubated for 7 minutes at room temperature. Data are presented as luminescence units (RLU).
Phosphodiesterase type 4 (PDE4) is predominant phosphodiesterase expressed in neutrophils, T cells and macrophages. PDE inhibitors show broad spectrum of anti-inflammatory effects in almost all inflammatory cells. PDE4 inhibitors, block the degradative action of PDE4 on cAMP, thereby increasing intracellular levels of cAMP levels which mediate phosphorylation of protein kinases. […] Data are presented as luminescence units (RLU).
The PDE-Glo phosphodiesterase assay was performed according to the Method described for FIG. 2, using 8 ng of PDE4B, 1 μM cAMP substrate PMX-60056. Data are presented as luminescence units (RLU). […]

human PDE3A = human PDE3A (Homo sapiens, UniProt Q14432); assay: PDE-Glo phosphodiesterase assay, PDE3; assay type: biochemical; conditions: 2.75 ng PDE3A, 1 μM cAMP substrate, 15 min pre-incubation; read-out: IC50, inhibition of PDE3
Description: Method for FIG. 3. […] The compounds and PDE3A were mixed and pre-incubated at room temperature for 15 minutes. Substrate was added and the reaction was incubated for 7 minutes at room temperature. Data are presented as luminescence units (RLU).
Method for FIG. 4. Phosphodiesterase inhibition assays of PDE3 were performed using PMX-60056. The PDE-Glo phosphodiesterase assay (Promega, Madison, WI, USA Catalog No. V1361) was performed according to manufacturer's instruction using 2.75 ng of PDE3A, 1 μM cAMP substrate and PMX60056. The compounds and PDE3A were mixed and pre-incubated at room temperature for 15 minutes. Substrate was added and the reaction was incubated for 7 minutes at room temperature. Data are presented as luminescence units (RLU).
The compounds and PDE3A were mixed and pre-incubated at room temperature for 15 minutes. Substrate was added and the reaction was incubated. […]
(§2) PDE4 and PDE3 inhibition results in subsequent down-regulation of pro-inflammatory cytokines/chemokines and its regulators, and experiments were conducted to confirm such down-regulation by brilacidin in ex vivo cell-based assays. In these assays, cells were exposed to brilacidin 45 minutes before an 8-hour lipopolysaccharide (LPS) stimulation in the presence of brilacidin; cytokine/enzyme concentrations were determined by ELISA using a standard immunoassay kit.

[2] = test system: LPS-induced TNF-α release, NR8383 cells; assay: LPS-induced TNF-α production in NR8383 rat macrophages (ELISA); assay type: cell-based
Description: Method for FIG. 5. TNF-alpha assays were performed using PMX-30063. […] TNF-α concentrations in the supernatants were determined by ELISA using an immunoassay kit specific for rat TNF-α (R&D Systems, Minneapolis, MN) according to manufacturer's instructions.
Method for FIG. 6. TNF-alpha assays were performed using PMX-60056. NR8383 rat macrophage cells were pretreated with PMX-60056 for 45 minutes followed by treatment with 1 μg/ml LPS from E. coli (Sigma, St. Louis, MO) for 8 hours. TNF-α concentrations in the supernatants were determined by ELISA using an immunoassay kit specific for rat TNF-α (R&D Systems, Minneapolis, MN) according to manufacturer's instructions.
The TNF-α inhibition assay was performed according to the Method described for FIG. 5. […] TNF-α concentrations in the supernatants were determined by ELISA using an immunoassay kit specific for rat TNF-α (R&D Systems).
The TNF-α inhibition assay was performed according to the Method described for FIG. 6. NR8383 rat macrophage cells (CRL-2192. ATCC) were pretreated with PMX-60056 for 45 minutes followed by treatment with 1 μg/ml LPS for 8 hours. TNF-α concentrations in the supernatants were determined by ELISA using an immunoassay kit specific for rat TNF-α (R&D Systems).
as §2

[3] = test system: LPS-induced MCP-1 release, NR8383 cells; assay: LPS-induced MCP-1 release in NR8383 rat macrophages (ELISA); assay type: cell-based
Description: Method for FIG. 7. […] After 8 hours, supernatants were collected for MCP-1 measurement by ELISA. MCP-1 was measured using an immunoassay kit according to manufacturer's instructions (Thermo Scientific, Rockford. IL).
Method for FIG. 8. MCP-1 assays were performed using PMX-60056. Rat macrophages (NR8383) were pretreated with […] with concentrations shown for 45 minutes, followed by 1 μg/ml LPS treatment from E. coli (Sigma, St. Louis, MO) for 8 hours. After 8 hours, supernatants were collected for MCP-1 measurement by ELISA. MCP-1 was measured using an immunoassay kit according to manufacturer's instructions (Thermo Scientific, Rockford, IL).
The MCP-1 inhibition assay was performed according to the Method described for FIG. 7.
The MCP-1 inhibition assay was performed according to the Method described for FIG. 8.
as §2

Sequence of human PDE3A (Q14432 whole entry): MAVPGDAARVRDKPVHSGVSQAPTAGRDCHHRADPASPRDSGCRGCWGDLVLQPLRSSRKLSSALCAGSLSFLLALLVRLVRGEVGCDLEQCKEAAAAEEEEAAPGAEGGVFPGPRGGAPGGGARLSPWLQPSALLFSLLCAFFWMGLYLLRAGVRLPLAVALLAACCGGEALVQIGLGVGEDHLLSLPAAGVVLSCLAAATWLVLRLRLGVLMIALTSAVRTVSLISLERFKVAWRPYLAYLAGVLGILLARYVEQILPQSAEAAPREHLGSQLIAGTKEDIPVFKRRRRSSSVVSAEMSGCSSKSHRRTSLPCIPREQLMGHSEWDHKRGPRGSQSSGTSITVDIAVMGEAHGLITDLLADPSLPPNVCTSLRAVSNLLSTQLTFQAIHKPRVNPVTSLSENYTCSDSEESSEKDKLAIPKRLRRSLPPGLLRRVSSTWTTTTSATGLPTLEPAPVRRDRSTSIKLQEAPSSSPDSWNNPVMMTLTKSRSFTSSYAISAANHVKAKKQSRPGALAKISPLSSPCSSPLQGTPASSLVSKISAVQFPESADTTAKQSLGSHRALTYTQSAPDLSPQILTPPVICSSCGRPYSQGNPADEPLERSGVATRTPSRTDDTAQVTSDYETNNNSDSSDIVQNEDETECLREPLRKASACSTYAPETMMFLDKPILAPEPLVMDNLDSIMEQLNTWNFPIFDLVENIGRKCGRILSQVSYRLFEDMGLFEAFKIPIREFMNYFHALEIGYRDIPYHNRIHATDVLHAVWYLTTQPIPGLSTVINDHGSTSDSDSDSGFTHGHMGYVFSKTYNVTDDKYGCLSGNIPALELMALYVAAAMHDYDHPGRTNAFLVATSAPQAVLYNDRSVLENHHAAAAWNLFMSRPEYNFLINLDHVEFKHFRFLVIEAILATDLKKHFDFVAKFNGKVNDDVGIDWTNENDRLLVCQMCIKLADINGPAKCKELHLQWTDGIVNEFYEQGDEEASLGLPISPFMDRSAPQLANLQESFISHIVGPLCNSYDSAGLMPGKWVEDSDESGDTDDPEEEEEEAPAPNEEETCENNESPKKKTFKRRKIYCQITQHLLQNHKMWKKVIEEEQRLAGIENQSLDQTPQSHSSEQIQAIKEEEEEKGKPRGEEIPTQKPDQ
Sequence of human PDE4B2 (Q07343 1-564 isoform Q07343-2): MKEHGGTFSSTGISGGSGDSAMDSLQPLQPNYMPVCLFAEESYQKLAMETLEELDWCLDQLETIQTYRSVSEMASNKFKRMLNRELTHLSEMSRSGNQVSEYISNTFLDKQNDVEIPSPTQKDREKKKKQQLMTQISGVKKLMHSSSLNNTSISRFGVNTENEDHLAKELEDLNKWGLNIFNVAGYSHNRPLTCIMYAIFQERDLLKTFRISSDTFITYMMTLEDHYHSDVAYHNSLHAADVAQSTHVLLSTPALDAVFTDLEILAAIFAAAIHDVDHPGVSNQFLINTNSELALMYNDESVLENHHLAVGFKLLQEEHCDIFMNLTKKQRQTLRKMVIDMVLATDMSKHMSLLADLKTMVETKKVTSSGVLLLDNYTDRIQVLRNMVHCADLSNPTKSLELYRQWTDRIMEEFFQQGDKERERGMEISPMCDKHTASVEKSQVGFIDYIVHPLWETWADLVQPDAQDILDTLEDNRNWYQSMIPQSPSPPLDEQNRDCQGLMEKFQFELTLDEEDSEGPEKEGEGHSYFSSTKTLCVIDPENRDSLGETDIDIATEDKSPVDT

| IC50 (human PDE4B2) [µM] | IC50 (human PDE3A) [µM] | SMILES | reduction of UC score ([1]; 5-ASA group, not significantly) [%] | efficacy on ulcerative colitis score (in words) ([1]; 5-ASA positive control group) | mean reduction in IL-1β in distal colon tissue compared to DSS-treated control group (DSS-induced colitis) [%] | mean reduction in IL-6 in distal colon tissue compared to DSS-treated control group (DSS-induced colitis) [%] | effect on LPS-induced TNF-α production (in words) ([2]; NR8383, 45 min pretreatment, 1 μg/ml LPS 8 h) | inhibition at 0.0625 µM ([2]; Rattus norvegicus, Macrophage, at 62.5 nM PMX-60056, NR8383, LPS 1 μg/ml 8 h) [%] | effect on MCP-1 induction after LPS stimulation (in words) ([3]; NR8383, 45 min pretreatment, LPS 1 μg/ml 8 h) | decrease in MCP-1 levels ([3]; at 0.5 μM, NR8383, LPS 1 μg/ml 8 h) [%] |
| --- | --- | --- | --- | --- | --- | --- | --- | --- | --- | --- |
|  |  | Nc1ccc(O)c(C(=O)O)c1 [5-ASA, 5-aminosalicylic acid, reference compound] | 67 | no significant efficacy | 33 | 86 |  |  |  |  |
| ~3 | 3 | COc1ccc(NC(=O)[C@H](CCCCN)NC(=O)c2cc(NC(=O)[C@H](CCCCN)NC(=O)c3cc(NC(=O)[C@H](CCCCN)NC(=O)c4cc(NC(=O)[C@@H](N)CCCCN)ccc4OC)ccc3OC)ccc2OC)cc1C(N)=O [PMX-60056] |  |  |  |  | inhibited | > 50 | strong inhibition | ≥ 25 |

Reference: US20230310435A1, “HOST DEFENSE PROTEIN (HDP) MIMETICS FOR PROPHYLAXIS AND/OR TREATMENT OF INFLAMMATORY DISEASES OF THE GASTROINTESTINAL TRACT” (priority 2015, published 2023)
